Test results published in publication PMC9516332 (Frontiers in Oncology, 2022).
Where two headings read alike, the source gives them in different places.

Experiments:
Test in all cases: Kinase panel profiling at 1 µmol/L (MSA or IMAP), percentage inhibition
Type in all cases: biochemical
[1] = target: T1, panel of 255 wild-type kinases (Homo sapiens, UniProt P29323); details: kinase EPHB2; 1 µmol/L single concentration; read-out: %-inhibition at 1 µmol/L, EPHB2
T1 sequence (P29323 19-1055): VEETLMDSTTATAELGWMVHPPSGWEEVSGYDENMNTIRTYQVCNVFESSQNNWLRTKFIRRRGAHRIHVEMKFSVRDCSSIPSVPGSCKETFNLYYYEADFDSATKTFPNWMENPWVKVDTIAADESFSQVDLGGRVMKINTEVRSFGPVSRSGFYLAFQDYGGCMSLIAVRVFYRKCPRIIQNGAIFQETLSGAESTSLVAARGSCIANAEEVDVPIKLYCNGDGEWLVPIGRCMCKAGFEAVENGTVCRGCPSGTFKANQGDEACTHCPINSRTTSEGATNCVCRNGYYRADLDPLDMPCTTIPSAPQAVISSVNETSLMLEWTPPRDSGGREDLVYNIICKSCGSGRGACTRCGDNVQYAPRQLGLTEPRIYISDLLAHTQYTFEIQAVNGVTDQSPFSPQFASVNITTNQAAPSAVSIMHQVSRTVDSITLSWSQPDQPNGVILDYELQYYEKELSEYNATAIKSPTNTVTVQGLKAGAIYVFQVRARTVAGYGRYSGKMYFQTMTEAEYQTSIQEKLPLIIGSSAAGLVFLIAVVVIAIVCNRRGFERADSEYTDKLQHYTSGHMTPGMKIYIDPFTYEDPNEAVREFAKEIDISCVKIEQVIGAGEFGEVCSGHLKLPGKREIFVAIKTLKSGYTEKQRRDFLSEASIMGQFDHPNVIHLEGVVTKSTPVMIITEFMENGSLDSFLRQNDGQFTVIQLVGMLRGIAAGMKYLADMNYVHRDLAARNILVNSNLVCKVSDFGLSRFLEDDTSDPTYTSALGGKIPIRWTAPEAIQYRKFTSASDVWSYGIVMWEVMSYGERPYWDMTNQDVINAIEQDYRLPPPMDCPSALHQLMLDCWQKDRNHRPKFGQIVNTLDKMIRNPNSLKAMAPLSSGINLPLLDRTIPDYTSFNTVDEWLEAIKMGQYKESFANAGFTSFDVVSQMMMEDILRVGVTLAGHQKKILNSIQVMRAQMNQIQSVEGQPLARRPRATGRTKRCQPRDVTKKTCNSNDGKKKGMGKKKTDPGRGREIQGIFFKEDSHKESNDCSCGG

[2] = target: T2, panel of 255 wild-type kinases (Homo sapiens, UniProt P52333); details: read-out: %-inhibition at 1 µmol/L, JAK3
T2 sequence (P52333 1-1124): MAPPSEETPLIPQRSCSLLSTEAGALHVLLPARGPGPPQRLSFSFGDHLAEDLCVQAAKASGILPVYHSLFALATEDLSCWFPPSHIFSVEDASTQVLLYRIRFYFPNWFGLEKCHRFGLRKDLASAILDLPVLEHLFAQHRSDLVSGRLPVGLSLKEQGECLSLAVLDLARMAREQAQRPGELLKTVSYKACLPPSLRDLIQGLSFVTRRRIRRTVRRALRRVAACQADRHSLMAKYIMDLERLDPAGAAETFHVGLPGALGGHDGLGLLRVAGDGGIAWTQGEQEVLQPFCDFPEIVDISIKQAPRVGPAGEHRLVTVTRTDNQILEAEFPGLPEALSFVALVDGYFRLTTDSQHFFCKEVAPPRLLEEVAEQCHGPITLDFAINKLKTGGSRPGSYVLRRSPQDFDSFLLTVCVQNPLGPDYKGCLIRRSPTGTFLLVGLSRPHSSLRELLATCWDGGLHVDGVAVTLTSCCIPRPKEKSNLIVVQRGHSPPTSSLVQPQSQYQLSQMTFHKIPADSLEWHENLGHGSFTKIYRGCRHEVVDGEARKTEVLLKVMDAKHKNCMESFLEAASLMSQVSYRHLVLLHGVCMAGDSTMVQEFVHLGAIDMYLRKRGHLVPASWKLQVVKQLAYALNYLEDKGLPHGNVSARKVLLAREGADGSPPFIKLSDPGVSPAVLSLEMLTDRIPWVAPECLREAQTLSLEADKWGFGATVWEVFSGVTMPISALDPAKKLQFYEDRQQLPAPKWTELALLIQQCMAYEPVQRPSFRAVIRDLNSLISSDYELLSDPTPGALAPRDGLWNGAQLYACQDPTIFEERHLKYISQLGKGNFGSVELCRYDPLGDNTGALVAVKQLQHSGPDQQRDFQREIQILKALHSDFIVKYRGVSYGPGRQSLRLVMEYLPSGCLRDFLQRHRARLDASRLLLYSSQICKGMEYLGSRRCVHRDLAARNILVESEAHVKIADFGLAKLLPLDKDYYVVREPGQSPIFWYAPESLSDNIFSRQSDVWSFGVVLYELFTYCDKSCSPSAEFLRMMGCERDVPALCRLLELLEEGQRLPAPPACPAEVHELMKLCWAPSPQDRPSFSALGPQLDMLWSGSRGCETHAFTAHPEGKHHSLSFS

[3] = target: panel of 255 wild-type kinases (Homo sapiens, UniProt P51957); details: NEK4; 1 µmol/L single concentration; read-out: %-inhibition, NEK4
[4] = target: T3, panel of 255 wild-type kinases (Homo sapiens, UniProt P51955); details: NEK2; 1 µmol/L single concentration; read-out: %-inhibition, NEK2
T3 sequence (P51955 1-445): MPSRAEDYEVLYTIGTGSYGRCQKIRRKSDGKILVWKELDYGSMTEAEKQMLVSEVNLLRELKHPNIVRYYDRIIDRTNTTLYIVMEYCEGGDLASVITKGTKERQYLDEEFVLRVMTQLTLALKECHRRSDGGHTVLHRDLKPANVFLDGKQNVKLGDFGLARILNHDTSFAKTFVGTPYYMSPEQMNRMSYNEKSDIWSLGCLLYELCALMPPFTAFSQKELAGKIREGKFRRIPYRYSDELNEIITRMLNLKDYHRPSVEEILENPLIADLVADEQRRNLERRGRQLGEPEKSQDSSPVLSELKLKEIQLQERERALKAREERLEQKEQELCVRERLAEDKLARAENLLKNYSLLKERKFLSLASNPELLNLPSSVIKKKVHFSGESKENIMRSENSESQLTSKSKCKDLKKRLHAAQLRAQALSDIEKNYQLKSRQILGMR

[5] = target: panel of 255 wild-type kinases (Homo sapiens, UniProt Q9HBH9); details: MNK2; 1 µmol/L single concentration; read-out: %-inhibition, MNK2
[6] = target: panel of 255 wild-type kinases (Homo sapiens, UniProt Q9Y6M4); details: kinase CK1γ3; 1 µmol/L single concentration; read-out: %-inhibition at 1 µmol/L, CK1γ3

| inhibition at 1 µM ([2]; kinase JAK3, 1 µmol/L single concentration) [%] | Compound | inhibition at 1 µM [1] [%] | inhibition at 1 µM [3] [%] | inhibition at 1 µM [4] [%] | inhibition at 1 µM [5] [%] | inhibition at 1 µM [6] [%] | inhibition at 1 µM [2] [%] |
| --- | --- | --- | --- | --- | --- | --- | --- |
| 4.65 | Cc1cc(Nc2ncnc3ccc(NC4=NC(C)(C)CO4)cc23)ccc1Oc1ccn2ncnc2c1 [tucatinib] | 2.14 | 2.39 | 2.8 | 8 | 11 |  |
|  | C=CC(=O)N1CCC([C@@H]2CCNc3c(C(N)=O)c(-c4ccc(Oc5ccccc5)cc4)nn32)CC1 [zanubrutinib] | -1.07 | 1 | -0.59 | -5 | -0.464 | 10 |
